Data published in ChEMBL document CHEMBL5715954, “Silencing c-Myc translation as a therapeutic strategy through targeting PI3Kδ and CK1ε in hematological malignancies” (Blood, 2017).

How the values were obtained:
Set-up in all cases: scale not given: the % may be the effect or the level left
[1] = molecular target: Serine/threonine-protein kinase PAK 6 (Homo sapiens) (UniProt Q9NQU5); assay: Inhibition of human PAK6 assessed as enzyme activity at 1 uM using RRRLSFAEPG as substrate preincubated for 20 mins followed by [gamma-33P]-ATP addition and measured after 120 mins by radiometric Hot-SpotSM Kinase assay relative to control
Chain of Serine/threonine-protein kinase PAK 6 (Homo sapiens) (Q9NQU5 whole entry, looked up): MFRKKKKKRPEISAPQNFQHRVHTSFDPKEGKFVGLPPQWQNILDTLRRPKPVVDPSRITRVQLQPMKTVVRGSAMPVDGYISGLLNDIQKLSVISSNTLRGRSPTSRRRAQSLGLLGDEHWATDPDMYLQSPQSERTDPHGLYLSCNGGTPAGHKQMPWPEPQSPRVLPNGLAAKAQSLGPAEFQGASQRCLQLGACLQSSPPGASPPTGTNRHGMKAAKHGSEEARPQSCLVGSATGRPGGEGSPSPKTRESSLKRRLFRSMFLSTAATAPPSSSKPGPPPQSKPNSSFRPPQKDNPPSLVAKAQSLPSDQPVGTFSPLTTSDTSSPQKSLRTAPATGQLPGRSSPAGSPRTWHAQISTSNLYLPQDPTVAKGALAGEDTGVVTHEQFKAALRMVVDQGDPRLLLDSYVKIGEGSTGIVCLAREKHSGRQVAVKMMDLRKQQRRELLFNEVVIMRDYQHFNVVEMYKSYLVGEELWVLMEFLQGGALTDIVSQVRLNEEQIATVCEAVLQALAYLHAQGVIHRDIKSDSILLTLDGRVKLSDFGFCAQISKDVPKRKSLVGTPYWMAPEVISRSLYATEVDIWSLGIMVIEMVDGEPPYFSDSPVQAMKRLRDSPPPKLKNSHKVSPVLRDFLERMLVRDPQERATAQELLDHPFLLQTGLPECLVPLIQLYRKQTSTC

[2] = molecular target: T1, Serine/threonine-protein kinase ULK3 (Homo sapiens) (UniProt Q6PHR2); assay: Inhibition of human ULK3 assessed as enzyme activity at 1 uM using myelin basic protein as substrate preincubated for 20 mins followed by [gamma-33P]-ATP addition and measured after 120 mins by radiometric Hot-SpotSM Kinase assay relative to control
T1 sequence (whole entry): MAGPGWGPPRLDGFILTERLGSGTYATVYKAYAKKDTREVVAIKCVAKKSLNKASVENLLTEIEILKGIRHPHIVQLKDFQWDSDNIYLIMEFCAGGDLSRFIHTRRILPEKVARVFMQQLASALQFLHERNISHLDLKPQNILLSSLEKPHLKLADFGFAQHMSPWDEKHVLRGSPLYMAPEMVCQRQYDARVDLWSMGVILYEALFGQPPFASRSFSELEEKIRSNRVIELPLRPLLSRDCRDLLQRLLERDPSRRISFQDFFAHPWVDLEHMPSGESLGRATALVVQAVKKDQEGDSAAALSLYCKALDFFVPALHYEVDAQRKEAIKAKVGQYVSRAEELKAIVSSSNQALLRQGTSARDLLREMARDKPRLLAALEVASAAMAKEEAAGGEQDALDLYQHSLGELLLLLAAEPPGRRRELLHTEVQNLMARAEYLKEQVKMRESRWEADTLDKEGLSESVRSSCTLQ

[3] = molecular target: Tyrosine-protein kinase Blk (Homo sapiens) (UniProt P51451); assay: Inhibition of human BLK assessed as enzyme activity at 1 uM using poly[Glu:Tyr] (4:1) as substrate preincubated for 20 mins followed by [gamma-33P]-ATP addition and measured after 120 mins by radiometric Hot-SpotSM Kinase assay relative to control
Chain of Tyrosine-protein kinase Blk (Homo sapiens) (P51451 2-505 limits assumed): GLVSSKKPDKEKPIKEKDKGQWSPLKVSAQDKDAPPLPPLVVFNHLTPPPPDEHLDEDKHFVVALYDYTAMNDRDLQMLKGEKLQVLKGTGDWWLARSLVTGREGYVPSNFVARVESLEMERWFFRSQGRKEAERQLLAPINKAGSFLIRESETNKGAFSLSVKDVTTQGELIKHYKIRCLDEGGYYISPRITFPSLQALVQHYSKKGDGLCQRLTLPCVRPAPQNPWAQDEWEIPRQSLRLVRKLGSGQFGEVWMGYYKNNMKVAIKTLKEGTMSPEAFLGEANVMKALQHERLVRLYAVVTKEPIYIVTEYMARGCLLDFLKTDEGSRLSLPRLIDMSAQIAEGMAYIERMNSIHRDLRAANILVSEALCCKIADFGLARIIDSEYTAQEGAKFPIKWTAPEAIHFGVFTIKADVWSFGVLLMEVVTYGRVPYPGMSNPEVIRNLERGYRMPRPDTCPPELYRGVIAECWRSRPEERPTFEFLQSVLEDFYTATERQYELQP

[4] = molecular target: Casein kinase I isoform epsilon (Homo sapiens, UniProt P49674); assay: Inhibition of human CK1epsilon assessed as enzyme activity at 1 uM using KRRRAL[pS]VASLPGL as substrate preincubated for 20 mins followed by [gamma-33P]-ATP addition and measured after 120 mins by radiometric Hot-SpotSM Kinase assay relative to control
Chain of Casein kinase I isoform epsilon (P49674 whole entry, looked up, canonical isoform): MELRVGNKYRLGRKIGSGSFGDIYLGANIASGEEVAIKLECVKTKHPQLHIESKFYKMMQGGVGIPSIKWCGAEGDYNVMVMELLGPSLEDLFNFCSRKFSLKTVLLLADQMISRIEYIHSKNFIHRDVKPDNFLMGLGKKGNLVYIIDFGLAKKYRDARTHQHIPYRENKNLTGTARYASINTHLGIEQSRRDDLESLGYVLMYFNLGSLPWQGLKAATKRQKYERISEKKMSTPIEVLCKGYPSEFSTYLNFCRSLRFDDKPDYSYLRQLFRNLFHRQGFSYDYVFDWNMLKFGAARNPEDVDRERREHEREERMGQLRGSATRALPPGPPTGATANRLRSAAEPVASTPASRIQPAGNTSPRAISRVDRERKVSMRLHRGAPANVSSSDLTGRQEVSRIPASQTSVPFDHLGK

[5] = molecular target: T2, Mitogen-activated protein kinase kinase kinase 7 (Homo sapiens) (UniProt O43318); assay: Inhibition of human TAK1 assessed as enzyme activity at 1 uM using casein as substrate preincubated for 20 mins followed by [gamma-33P]-ATP addition and measured after 120 mins by radiometric Hot-SpotSM Kinase assay relative to control
T2 sequence (whole entry): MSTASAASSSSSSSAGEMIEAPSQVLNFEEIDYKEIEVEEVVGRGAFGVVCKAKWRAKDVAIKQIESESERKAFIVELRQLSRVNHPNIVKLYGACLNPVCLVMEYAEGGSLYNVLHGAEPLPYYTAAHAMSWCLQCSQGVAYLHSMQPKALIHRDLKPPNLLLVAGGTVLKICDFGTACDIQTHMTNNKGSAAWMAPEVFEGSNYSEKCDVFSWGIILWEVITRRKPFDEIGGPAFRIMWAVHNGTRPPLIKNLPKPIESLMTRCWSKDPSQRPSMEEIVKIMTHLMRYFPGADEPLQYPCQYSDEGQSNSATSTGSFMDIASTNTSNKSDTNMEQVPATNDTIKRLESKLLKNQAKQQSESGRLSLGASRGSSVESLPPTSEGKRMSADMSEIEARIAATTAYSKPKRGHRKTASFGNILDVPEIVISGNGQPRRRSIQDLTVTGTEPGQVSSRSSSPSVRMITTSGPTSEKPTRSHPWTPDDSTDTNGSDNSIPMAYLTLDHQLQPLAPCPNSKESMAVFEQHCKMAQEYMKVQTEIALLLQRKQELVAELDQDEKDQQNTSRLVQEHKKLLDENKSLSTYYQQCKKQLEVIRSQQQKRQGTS

[6] = molecular target: Myosin-IIIa (Homo sapiens) (UniProt Q8NEV4); assay: Inhibition of human MYO3A assessed as enzyme activity at 1 uM using myelin basic protein as substrate preincubated for 20 mins followed by [gamma-33P]-ATP addition and measured after 120 mins by radiometric Hot-SpotSM Kinase assay relative to control
Chain of Myosin-IIIa (Homo sapiens) (Q8NEV4 whole entry): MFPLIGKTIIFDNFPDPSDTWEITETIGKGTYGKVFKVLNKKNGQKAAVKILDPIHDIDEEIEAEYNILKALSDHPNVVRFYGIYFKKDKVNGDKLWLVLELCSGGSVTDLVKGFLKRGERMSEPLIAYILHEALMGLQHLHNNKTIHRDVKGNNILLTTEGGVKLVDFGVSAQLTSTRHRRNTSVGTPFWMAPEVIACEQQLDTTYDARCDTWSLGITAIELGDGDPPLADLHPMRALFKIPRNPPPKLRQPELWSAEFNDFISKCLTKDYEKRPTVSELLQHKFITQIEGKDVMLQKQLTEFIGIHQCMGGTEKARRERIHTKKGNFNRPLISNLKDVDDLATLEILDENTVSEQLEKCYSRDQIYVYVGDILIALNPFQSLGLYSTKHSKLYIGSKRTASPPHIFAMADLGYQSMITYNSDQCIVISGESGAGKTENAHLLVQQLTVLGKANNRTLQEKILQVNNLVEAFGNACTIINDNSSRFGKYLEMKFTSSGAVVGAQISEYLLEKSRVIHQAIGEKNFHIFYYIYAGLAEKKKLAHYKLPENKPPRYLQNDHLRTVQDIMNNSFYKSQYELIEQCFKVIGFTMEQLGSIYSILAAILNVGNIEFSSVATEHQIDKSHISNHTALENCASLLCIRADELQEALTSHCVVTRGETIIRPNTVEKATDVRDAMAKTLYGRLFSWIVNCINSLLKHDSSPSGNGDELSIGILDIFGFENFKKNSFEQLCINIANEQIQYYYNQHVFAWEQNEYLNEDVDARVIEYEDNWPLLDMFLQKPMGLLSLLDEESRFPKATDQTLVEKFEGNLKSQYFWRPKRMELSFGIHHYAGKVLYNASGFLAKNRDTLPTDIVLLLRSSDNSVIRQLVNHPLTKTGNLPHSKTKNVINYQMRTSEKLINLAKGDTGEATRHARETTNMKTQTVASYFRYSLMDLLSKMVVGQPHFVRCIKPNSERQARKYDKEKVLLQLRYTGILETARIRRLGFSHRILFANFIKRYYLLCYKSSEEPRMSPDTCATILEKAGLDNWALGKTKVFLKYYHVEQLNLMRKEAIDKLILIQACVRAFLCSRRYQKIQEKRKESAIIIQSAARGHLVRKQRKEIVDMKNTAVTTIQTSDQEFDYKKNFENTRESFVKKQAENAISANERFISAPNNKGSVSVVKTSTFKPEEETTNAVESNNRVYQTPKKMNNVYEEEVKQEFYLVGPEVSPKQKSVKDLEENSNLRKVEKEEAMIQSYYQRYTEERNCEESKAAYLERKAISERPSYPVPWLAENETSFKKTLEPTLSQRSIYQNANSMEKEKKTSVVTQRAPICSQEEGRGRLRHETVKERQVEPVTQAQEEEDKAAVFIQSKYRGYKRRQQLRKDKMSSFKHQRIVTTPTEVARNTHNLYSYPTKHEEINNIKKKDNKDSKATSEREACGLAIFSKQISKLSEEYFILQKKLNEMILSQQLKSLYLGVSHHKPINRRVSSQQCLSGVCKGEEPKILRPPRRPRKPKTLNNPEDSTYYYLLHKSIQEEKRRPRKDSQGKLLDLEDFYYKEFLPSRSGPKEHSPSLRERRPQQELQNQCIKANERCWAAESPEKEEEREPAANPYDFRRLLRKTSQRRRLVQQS

[7] = molecular target: T3, Serine/threonine-protein kinase haspin (Homo sapiens) (UniProt Q8TF76); assay: Inhibition of human Haspin assessed as enzyme activity at 1 uM using histone H3 as substrate preincubated for 20 mins followed by [gamma-33P]-ATP addition and measured after 120 mins by radiometric Hot-SpotSM Kinase assay relative to control
T3 sequence (whole entry): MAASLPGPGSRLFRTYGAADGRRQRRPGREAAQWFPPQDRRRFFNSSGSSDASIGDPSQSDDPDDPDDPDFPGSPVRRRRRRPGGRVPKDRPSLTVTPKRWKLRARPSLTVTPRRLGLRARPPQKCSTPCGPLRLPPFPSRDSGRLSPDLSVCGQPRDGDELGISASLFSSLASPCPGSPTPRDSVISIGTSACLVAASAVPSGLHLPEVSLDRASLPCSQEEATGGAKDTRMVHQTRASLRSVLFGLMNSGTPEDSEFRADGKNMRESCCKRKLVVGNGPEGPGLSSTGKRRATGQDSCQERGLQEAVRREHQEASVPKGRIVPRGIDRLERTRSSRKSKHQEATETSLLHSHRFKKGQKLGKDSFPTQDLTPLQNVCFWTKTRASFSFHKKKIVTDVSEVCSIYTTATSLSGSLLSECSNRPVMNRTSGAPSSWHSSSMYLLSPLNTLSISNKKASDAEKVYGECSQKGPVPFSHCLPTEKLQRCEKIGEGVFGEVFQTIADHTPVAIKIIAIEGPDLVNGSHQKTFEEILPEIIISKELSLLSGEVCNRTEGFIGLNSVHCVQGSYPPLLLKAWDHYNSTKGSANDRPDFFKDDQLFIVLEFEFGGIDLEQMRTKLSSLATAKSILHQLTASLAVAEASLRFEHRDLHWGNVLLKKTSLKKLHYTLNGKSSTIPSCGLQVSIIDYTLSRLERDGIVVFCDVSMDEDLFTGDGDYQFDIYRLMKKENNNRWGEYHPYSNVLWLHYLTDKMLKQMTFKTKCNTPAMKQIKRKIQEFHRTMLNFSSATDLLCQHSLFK

[8] = molecular target: Casein kinase I isoform gamma-1 (Homo sapiens) (UniProt Q9HCP0); assay: Inhibition of human CK1g1 assessed as enzyme activity at 1 uM using KRRRAL[pS]VASLPGL as substrate preincubated for 20 mins followed by [gamma-33P]-ATP addition and measured after 120 mins by radiometric Hot-SpotSM Kinase assay relative to control
Chain of Casein kinase I isoform gamma-1 (Homo sapiens) (Q9HCP0 whole entry, looked up, canonical isoform): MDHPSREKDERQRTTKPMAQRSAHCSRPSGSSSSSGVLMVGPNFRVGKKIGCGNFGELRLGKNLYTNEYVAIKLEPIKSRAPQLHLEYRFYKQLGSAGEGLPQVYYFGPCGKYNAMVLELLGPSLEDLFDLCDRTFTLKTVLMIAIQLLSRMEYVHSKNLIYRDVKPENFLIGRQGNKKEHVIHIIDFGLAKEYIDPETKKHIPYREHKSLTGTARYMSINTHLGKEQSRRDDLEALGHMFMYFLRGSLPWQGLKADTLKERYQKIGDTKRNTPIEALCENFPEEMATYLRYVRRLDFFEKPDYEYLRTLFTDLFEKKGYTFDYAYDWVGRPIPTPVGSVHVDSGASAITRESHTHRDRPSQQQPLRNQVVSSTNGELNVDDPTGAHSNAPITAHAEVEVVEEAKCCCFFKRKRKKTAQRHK

CC[C@H](Nc1ncnc2[nH]cnc12)c1nc2cccc(F)c2c(=O)n1-c1ccccc1
Activity [1]: 102% | Activity [2]: 89.3% | Activity [3]: 97.6% | Activity [4]: 92.9% | Activity [5]: 102% | Activity [6]: 91.7% | Activity [7]: 95.5% | Activity [8]: 105%

C[C@H](Nc1ncnc2nc[nH]c12)c1cc2cccc(Cl)c2c(=O)n1-c1ccccc1
Activity [1]: 99.5% | Activity [2]: 93.2% | Activity [3]: 96.9% | Activity [4]: 90.9% | Activity [5]: 98.7% | Activity [6]: 93.6% | Activity [7]: 96.5% | Activity [8]: 98.3%

CC(C)Oc1ccc(-c2nn([C@@H](C)c3oc4ccc(F)cc4c(=O)c3-c3cccc(F)c3)c3ncnc(N)c23)cc1F [UMBRALISIB]
Activity [1]: 97.2% | Activity [2]: 93.8% | Activity [3]: 99.7% | Activity [4]: 39.9% | Activity [5]: 99% | Activity [6]: 84.7% | Activity [7]: 93.7% | Activity [8]: 97.6%
